# In BindingDB's records for doi:10.1021/jm800936s (University of Oxford, 2008):
# Molecular target: T1, Lysine-specific demethylase 4E (Homo sapiens, UniProt B2RXH2)
# T1 sequence (B2RXH2 whole entry): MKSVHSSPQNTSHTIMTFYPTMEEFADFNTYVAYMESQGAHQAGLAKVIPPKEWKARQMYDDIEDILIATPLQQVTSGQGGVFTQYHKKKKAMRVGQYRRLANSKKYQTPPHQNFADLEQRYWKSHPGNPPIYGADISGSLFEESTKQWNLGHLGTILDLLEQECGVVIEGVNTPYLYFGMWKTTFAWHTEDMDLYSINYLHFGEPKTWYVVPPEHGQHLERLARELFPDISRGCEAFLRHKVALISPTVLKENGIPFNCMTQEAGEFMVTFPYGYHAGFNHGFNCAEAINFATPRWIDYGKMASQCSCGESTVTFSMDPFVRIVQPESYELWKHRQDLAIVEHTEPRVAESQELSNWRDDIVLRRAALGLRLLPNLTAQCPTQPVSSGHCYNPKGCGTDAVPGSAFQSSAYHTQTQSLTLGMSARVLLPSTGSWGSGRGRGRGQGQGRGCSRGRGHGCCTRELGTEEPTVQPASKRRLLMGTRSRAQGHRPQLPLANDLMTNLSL
# Assay: FDH Coupled Inhibition Assay
# Settings: pH 7.5; 37 °C
# Description: A coupled-assay for JMJD2E activity employing formaldehyde dehydrogenase (FDH) from Pseudomonas putida was developed. Formaldehyde release by demethylation of the histone peptide substrate was monitored by its oxidation to give formate as catalyzed by FDH, which is carried out concomitantly with the reduction of NAD+. The production of NADH was monitored by fluorescence spectroscopy.
row,SMILES,IC50
1,COC(=O)c1ccnc(-c2cc(C(=O)O)ccn2)c1 [2-[4-(methoxycarbonyl)pyridin-2-yl]pyridine-4-carboxylic acid],0.0066 mM
2,CCCC(=O)O [butanoic acid],> 10 mM
3,"O=C(O)c1cccnc1C(=O)O [pyridine-2,3-dicarboxylic acid]",> 5 mM
4,"O=C(O)c1ccncc1C(=O)O [pyridine-3,4-dicarboxylic acid]",> 10 mM
5,"O=C(O)c1cncc(C(=O)O)c1 [pyridine-3,5-dicarboxylic acid]",> 10 mM
